Reference: ChEMBL document CHEMBL1151179, “Isolation of salicin derivatives from Homalium cochinchinensis and their antiviral activities” (J Nat Prod, 2004)
pEC50: −log10 of the molar value.

Assays:
Assay type in all cases: functional, organism-based
Human alphaherpesvirus 2 = assay: Antiviral activity against HSV2
Human alphaherpesvirus 1 = assay: Antiviral activity against HSV1
[1] = test system: Human immunodeficiency virus 1; assay: Antiviral activity against HIV1

| Compound | pEC50 (Human alphaherpesvirus 2) | pEC50 (Human alphaherpesvirus 1) | pEC50 [1] |
| --- | --- | --- | --- |
| Nc1nc2c(ncn2COCCO)c(=O)[nH]1 [ACYCLOVIR] | 6.00 | 5.96 | – |
| O=C(O[C@H]1[C@H](Oc2c(O)cccc2COC(=O)C2(O)C=CCCC2=O)O[C@H](CO)[C@@H](O)[C@@H]1O)c1ccccc1 (stereo partly specified) [COCHINCHISIDE B] | 4.12 | 4.12 | < 4.74 |
| O=C1OC2=C[C@@H](O)CCC2=C1C(O)c1ccccc1 (stereo partly specified) [COCHINOLIDE] | 4.07 | 4.51 | – |
| O=c1[nH]cnc2c1ncn2[C@H]1CC[C@@H](CO)O1 [DIDANOSINE] | – | – | 5.68 |
| O=C(O[C@H]1[C@H](Oc2ccccc2COC(=O)[C@]2(O)C=CCC[C@@H]2O)O[C@H](CO)[C@@H](O)[C@@H]1O)c1ccccc1 [TREMULACINOL] | < 3.73 | < 3.73 | – |
| O=C(O[C@H]1[C@H](Oc2ccccc2COC(=O)C2(O)C=CCCC2=O)O[C@H](CO)[C@@H](O)[C@@H]1O)c1ccccc1 (stereo partly specified) [TREMULACIN] | 4.07 | 4.06 | 4.28 |
| O=C(O[C@H]1[C@H](Oc2ccccc2CO)O[C@H](CO)[C@@H](O)[C@@H]1O)c1ccccc1 [TREMULDIN] | < 3.59 | < 3.59 | – |
| Cc1cn([C@H]2C[C@H](N=[N+]=[N-])[C@@H](CO)O2)c(=O)[nH]c1=O [ZIDOVUDINE] | – | – | 7.70 |
